Patent publication US20090088441A1, “Quinoline Compounds” (priority 2007, published 2009)

Key:
[1] = biological target: T1, GABABR1a/GABABR2 heterodimer (Homo sapiens, UniProt O75899+Q9UBS5); test: GTPγS35 radioligand filtration-binding assay for determination of agonist potency; format: biochemical; settings: membranes of CHO K1 Flp-In cells expressing GABABR1a/GABABR2; 30° C., 1 hour
T1 construct: expressed in transfected cells; membrane preparation
Method: (§1) The potency and efficacy of the compounds acting as agonists at the GABAB receptor was also determined in a automated GTPγS^35 radioligand filtration-binding assay.
(§2) The GABAB receptor is a G-protein coupled receptor. Binding of a ligand activates the receptor leading to recruitment of G-protein and a substitution of the G-protein bound GDP to GTP. The G-protein becomes active. The G-protein is inactivated by hydrolysis of GTP to GDP. G-proteins are membrane bound and therefore present in membrane preparations.
(§3) In the GTPγS^35 assay, GTP is not present but instead GTPγS^35 where one of the phosphate groups are substituted to a sulphur group which cannot be hydrolysed. Upon activation of the receptor, radiolabelled GTPγS^35 replaces the GDP. The complex cannot be inactivated and the radiolabelled complex is accumulating. At the end of the assay, the reaction mixture is filtered through a membrane-binding filter. Excess GTPγS^35 is removed by washing and the membrane bound S^35, which correlates to the degree of receptor activation, is measured with a β-Liquid Scintillation Counter.
The human GABABR1a was subcloned into pIRESneo3 (Clontech) using GABABR1a construct as a template (refseqN NM001470). GABABR2 was subcloned into pcDNA5/FRT (Invitrogen) using GABABR2 construct as a template (refseqN NM005458). The Kozak sequence GCCACC was introduced before the start codon in both constructs.
For generation of stable cell lines, CHO K1 Flp-In cells (Invitrogen) were grown in DMEM/F12 1:1 media supplemented with 10% FBS at 37° C. in a humidified CO2-incubator. The cells were detached with Accutase and 1.5 million cells were seeded into T75 flasks. After 24 h, transfection of the cells were performed with the GABABR2 construct. For generation of cell lines expressing GABABR2, GABABR2 plasmid (1 μg) and pOG44 from Invitrogen (9 μg) were mixed with 30 μl Lipofectamine 2000 in 600 μl OptiMEM for 20 minutes. The cells were exposed to transfection medium for 5 hours and was then replaced with culture medium. After 2 days 0.5 mg/ml Hygromycin were added to culture medium. The cells were cultured for an additional 10 days to establish a stable cell mix expressing GABABR2. For generation of a cell line expressing the GABABR1a/GABABR2 hetrodimer, GABABR1a plasmid DNA (8 μg) and Lipofectamine (30 μl) were mixed in 600 μl OptiMEM and incubated for 20 minutes before added to CHO-Flp-In cells expressing GABABR2. After 2 days additional selection agent was added (0.8 mg/ml Geneticin). The cells were cultured for another 10 days to generate a stable mixed population expressing the GABABR1a/GABABR2 heterodimer. The cell line was analyzed by GTPγS^35 assay with GABA as agonist.
GTPγS^35 radioligand filtration-binding assays were performed using an automated workstation at 30° C. for 1 hour in assay buffer (50 mM HEPES, 40 mM NaCl, 1 mM MgCl2×6H2O, 30 μg/mL Saponin, pH 7.4 at RT) containing 0.025 μg/μL of membrane protein (prepared from the cell line described above), 10 μM GDP and 0.55 nCi/μL GTPγS^35 in a final volume of 60 μL. The reaction was started by the addition of compounds (GABA was always included as a positive control), start concentration 100 μM dilution factor 3. The reaction was terminated and membranes collected by addition of ice-cold wash buffer (50 mM Tris-HCl, 5 mM MgCl2×6H2O, 50 mM NaCl, pH 7.4 at 4° C.) followed by rapid filtration under vacuum through a MultiScreen HTS 384 FB filter plate. Repeated washing of the filters with ice-cold wash buffer washed the unbound radioligand away. The filter plates were dried for 1½-2 hours at 50° C., then 8 μL scintillation liquid was added per well followed by incubation at RT for at least 20 minutes before bound radioactivity was determined using a β-Liquid Scintillation Counter (1450 Microbeta Trilux, Wallac, Finland)
100% activation (max) is calculated as the mean value for wells containing 1 mM GABA. […]

[2] = biological target: T2, GABAB(1A,2) receptor heterodimer (Homo sapiens, UniProt O75899+Q9UBS5); test: GTPγS35 radioligand filtration-binding assay for determination of PAM potency; format: biochemical; settings: membranes of CHO-K1 cells expressing GABABR1a/GABABR2; GABA dose-response with 10, 1, 0.1 and 0.01 μM PAM; concentration reducing GABA's EC50 by 50%; read-out: Mean (EC50 derived) PAM EC50
T2 construct: expressed in transfected cells; membrane preparation
Method: The effect of GABA in an automated GTPγS^35 radioligand filtration-binding assay in CHO cells expressing the GABAB(1A,2) receptor heterodimer was studied in the presence or absence of the positive allosteric modulator test compounds.
as §1, §2, §3
GABABR1a and GABABR2 were cloned from human brain cDNA and subcloned into pCI-Neo (Promega) and pALTER-1 (Promega), respectively.
In order to optimise the Kozak consensus sequence of GABABR2, in situ mutagenesis was performed using the Altered Sites Mutagenesis kit according to manufacturer's instruction (Promega) with the following primer, 5′-[…]-3′. The optimised GABABR2 was then restricted from pALTER-1 with Xho I+Kpn I and subcloned into the mammalian expression vector pcDNA3.1 (−)/Zeo (Invitrogen) to produce the final construct, pcDNA3.1 (−)/Zeo-GABABR2.
For generation of stable cell lines, CHO-K1 cells were grown in Nut mix F-12 (Ham) media supplemented with 10% FBS, 100 U/ml Penicillin and 100 μg/ml Streptomycin at 37° C. in a humidified CO2-incubator. The cells were detached with 1 mM EDTA in PBS and 1 million cells were seeded in 100 mm petri dishes. After 24 hours the culture media was replaced with OptiMEM and incubated for 1 hour in a CO2-incubator.
For generation of a cell line expressing the GABABR1a/GABABR2 heterodimer, GABABR1a plasmid DNA ([…]) GABABR2 plasmid DNA (4 μg) and lipofectamine (24 μl) were mixed in 5 ml OptiMEM and incubated for 45 minutes at room temperature. […] After expansion, the GABAB receptor functional response was tested by measuring the GABAB receptor dependent release of intracellular calcium in a fluorescence imaging plate reader (FLIPR). […]

T2 sequence (Q9UBS5 15-961 limits assumed): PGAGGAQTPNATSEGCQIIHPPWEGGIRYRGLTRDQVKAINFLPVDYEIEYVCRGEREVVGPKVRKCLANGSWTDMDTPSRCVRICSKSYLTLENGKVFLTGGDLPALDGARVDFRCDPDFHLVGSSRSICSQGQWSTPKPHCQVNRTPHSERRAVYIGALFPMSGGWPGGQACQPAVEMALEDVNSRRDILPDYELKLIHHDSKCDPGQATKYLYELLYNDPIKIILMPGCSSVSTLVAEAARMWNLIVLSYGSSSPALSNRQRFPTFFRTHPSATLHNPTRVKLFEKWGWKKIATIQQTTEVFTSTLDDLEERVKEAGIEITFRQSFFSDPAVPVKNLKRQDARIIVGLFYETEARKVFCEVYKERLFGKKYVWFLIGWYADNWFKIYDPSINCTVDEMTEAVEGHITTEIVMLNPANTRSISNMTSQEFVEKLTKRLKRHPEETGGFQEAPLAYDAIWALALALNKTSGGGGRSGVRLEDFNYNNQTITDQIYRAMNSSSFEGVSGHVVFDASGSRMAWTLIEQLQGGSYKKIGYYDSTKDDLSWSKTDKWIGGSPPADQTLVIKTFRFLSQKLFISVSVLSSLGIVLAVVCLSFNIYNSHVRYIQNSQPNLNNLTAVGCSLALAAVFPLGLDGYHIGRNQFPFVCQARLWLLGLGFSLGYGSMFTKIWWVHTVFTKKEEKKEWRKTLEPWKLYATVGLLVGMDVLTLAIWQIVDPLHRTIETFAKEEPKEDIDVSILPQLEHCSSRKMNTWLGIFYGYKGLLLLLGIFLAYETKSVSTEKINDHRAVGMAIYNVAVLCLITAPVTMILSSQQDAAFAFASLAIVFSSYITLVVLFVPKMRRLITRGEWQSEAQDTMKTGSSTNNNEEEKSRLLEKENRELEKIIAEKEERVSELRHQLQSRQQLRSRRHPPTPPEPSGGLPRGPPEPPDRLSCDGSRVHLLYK
T2 sequence (O75899 42-941): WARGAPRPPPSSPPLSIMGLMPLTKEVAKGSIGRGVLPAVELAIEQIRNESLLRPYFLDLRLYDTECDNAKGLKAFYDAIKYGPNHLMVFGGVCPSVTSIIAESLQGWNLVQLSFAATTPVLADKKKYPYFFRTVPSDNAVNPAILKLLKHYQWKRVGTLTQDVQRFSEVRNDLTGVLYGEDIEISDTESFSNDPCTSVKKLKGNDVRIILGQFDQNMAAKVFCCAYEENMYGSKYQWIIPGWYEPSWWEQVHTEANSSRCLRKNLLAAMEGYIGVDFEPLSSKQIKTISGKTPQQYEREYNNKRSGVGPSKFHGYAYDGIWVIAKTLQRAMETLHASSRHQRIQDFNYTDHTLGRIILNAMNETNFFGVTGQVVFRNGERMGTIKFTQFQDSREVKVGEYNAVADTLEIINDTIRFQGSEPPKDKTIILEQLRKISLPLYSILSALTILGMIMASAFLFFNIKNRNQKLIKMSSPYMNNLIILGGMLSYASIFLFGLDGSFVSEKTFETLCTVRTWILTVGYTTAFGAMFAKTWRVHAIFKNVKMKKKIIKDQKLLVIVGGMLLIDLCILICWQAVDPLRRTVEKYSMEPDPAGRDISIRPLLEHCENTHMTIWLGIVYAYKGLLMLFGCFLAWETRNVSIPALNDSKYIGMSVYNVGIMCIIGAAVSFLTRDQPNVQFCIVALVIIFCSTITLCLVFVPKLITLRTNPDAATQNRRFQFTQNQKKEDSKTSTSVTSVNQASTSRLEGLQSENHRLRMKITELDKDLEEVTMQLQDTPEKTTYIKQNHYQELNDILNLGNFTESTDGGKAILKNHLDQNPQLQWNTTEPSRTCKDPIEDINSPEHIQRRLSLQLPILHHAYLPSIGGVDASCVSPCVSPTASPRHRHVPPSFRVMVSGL
T1 sequence (Q9UBS5 15-961 limits assumed): as the sequence (Q9UBS5 15-961 limits assumed) above
T1 sequence (O75899 42-941): as the sequence (O75899 42-941) above

An EC50 [1] of 1300 nM and an EC50 [2] of 18 µM were found for Cc1nc2ccc(N3CCCCC3)cc2c(-c2ccc(F)cc2)c1C(=O)OC(C)(C)C [Example 22, tert-butyl 4-(4-fluorophenyl)-2-methyl-6-piperidin-1-ylquinoline-3-carboxylate] in this work.
